pIC50: −log10 of the molar value.
Experiments:
recombinant human MER = molecular target: T1, recombinant human MER (Homo sapiens, UniProt Q12866); assay: Biochemical potency, HTRF KinEASE-TK kinase assay; conditions: 1 nM MER, 700 μM ATP
T1 construct: purchased Invitrogen
T1 sequence (Q12866 21-999): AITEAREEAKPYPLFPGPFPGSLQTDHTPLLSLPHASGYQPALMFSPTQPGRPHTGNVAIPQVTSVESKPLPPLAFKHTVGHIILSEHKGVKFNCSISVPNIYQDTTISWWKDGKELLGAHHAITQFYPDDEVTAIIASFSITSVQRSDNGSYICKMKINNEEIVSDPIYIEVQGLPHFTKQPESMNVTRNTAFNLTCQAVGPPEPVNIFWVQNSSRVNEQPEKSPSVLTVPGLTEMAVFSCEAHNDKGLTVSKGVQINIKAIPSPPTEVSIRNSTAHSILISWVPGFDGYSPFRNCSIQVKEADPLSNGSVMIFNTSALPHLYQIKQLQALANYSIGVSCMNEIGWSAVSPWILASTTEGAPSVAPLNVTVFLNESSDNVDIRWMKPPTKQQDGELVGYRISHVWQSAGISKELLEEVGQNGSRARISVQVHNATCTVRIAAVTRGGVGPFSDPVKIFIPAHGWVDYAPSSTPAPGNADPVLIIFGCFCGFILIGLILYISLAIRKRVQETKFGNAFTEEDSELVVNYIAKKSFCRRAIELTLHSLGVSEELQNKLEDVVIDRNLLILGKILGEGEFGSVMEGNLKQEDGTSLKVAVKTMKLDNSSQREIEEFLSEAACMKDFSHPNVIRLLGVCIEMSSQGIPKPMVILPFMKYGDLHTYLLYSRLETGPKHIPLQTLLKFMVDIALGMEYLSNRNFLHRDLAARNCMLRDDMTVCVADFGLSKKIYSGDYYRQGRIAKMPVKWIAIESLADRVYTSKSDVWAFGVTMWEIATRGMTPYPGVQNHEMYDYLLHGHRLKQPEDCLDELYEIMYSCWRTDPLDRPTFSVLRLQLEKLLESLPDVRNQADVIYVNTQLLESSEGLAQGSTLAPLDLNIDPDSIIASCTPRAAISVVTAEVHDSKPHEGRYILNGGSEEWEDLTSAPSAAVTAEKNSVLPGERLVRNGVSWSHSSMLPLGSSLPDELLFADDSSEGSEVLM
Method in brief: (§1)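 Phosphorylation of a biotinylated tyrosine-kinase peptide (800 nM) by AXL (5 nM) or TYRO3/MER (1 nM) is measured at 700 µM ATP after 2 h at room temperature, following 1 h enzyme–compound preincubation. Signal is the time-resolved FRET ratio, converted to percent activity.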

recombinant human TYRO3 = molecular target: T2, recombinant human TYRO3 (Homo sapiens, UniProt Q06418); assay: Biochemical potency, HTRF KinEASE-TK kinase assay; conditions: 1 nM TYRO3, 700 μM ATP
T2 construct: purchased Invitrogen
T2 sequence (Q06418 41-890): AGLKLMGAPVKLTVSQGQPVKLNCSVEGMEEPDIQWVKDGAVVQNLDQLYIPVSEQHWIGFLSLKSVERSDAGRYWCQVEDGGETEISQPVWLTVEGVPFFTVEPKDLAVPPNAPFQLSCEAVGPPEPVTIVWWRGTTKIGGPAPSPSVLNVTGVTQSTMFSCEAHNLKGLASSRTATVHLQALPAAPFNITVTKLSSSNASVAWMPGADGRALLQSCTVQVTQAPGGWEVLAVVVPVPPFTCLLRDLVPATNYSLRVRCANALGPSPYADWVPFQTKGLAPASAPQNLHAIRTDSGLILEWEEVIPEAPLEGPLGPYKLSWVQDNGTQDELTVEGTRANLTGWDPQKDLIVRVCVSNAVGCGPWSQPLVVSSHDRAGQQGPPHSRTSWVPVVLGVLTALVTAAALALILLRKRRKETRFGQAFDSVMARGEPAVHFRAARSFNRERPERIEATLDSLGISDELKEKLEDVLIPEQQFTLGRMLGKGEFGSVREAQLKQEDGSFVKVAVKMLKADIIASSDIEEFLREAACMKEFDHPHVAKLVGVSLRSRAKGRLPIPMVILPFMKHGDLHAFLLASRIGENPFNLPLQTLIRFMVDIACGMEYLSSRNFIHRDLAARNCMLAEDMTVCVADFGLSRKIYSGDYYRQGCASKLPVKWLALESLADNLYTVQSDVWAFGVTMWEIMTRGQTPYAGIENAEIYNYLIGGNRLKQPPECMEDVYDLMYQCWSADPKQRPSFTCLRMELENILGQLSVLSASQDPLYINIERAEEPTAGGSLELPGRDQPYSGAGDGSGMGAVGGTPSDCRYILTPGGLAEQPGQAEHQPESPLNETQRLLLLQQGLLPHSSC
Method in brief: as §1

Row | pIC50 (recombinant human MER) | pIC50 (recombinant human TYRO3) | SMILES
1 | 6.00 to 7.00 | > 7.00 | COc1cccnc1-c1ccc(-c2c[nH]c3ncc(-c4ccc5c(c4)CC[C@@H](N4C6COCC4C6)CC5)cc23)cc1 [Example 164, 6-[(7S)-2-{3-[4-(3-Methoxypyridin-2-yl)phenyl]-1H-pyrrolo[2,3-b]pyridin-5-yl}-6,7,8,9-tetrahydro-5H-benzo[7]annulen-7-yl]-3-oxa-6-azabicyclo[3.1.1]heptane]
2 | 6.00 to 7.00 | > 7.00 | CN(C)C(=O)c1cccnc1-c1ccc(-c2c[nH]c3ncc(-c4ccc5c(c4)CC[C@@H](N4C6COCC4C6)CC5)cc23)cc1 [Example 165, N,N-Dimethyl-2-(4-{5-[(7S)-7-{3-oxa-6-azabicyclo[3.1.1]heptan-6-yl}-6,7,8,9-tetrahydro-5H-benzo[7]annulen-2-yl]-1H-pyrrolo[2,3-b]pyridin-3-yl}phenyl)pyridine-3-carboxamide]
3 | 6.00 to 7.00 | > 7.00 | COc1cccnc1-c1ccc(-c2n[nH]c3ncc(-c4ccc5c(c4)CC[C@@H](N4C6COCC4C6)CC5)cc23)cc1 [Example 166, 6-[(7S)-2-{3-[4-(3-Methoxypyridin-2-yl)phenyl]-1H-pyrazolo[3,4-b]pyridin-5-yl}-6,7,8,9-tetrahydro-5H-benzo[7]annulen-7-yl]-3-oxa-6-azabicyclo[3.1.1]heptane]
4 | 6.00 to 7.00 | > 7.00 | CN(C)C(=O)c1cccnc1-c1ccc(-c2n[nH]c3ncc(-c4ccc5c(c4)CC[C@@H](N4C6COCC4C6)CC5)cc23)cc1 [Example 167, N,N-Dimethyl-2-(4-{5-[(7S)-7-{3-oxa-6-azabicyclo[3.1.1]heptan-6-yl}-6,7,8,9-tetrahydro-5H-benzo[7]annulen-2-yl]-1H-pyrazolo[3,4-b]pyridin-3-yl}phenyl)pyridine-3-carboxamide]
5 | 6.00 to 7.00 | 6.00 to 7.00 | c1ccc(-n2cc(-c3n[nH]c4ncc(-c5ccc6c(c5)CC[C@@H](N5C7COCC5C7)CC6)cc34)cn2)nc1 [Example 168, 6-[(7S)-2-{3-[1-(Pyridin-2-yl)-1H-pyrazol-4-yl]-1H-pyrazolo[3,4-b]pyridin-5-yl}-6,7,8,9-tetrahydro-5H-benzo[7]annulen-7-yl]-3-oxa-6-azabicyclo[3.1.1]heptane]
6 | > 7.00 | > 7.00 | Cn1cnnc1-c1ccc(-c2n[nH]c3ncc(-c4ccc5c(c4)CC[C@@H](N4C6COCC4C6)CC5)cc23)cc1 [Example 169, 6-[(7S)-2-{3-[4-(4-Methyl-4H-1,2,4-triazol-3-yl)phenyl]-1H-pyrazolo[3,4-b]pyridin-5-yl}-6,7,8,9-tetrahydro-5H-benzo[7]annulen-7-yl]-3-oxa-6-azabicyclo[3.1.1]heptane]
7 | 6.00 to 7.00 | 6.00 to 7.00 | CN(C)C(=O)c1ccccc1-c1ccc(-c2c[nH]c3ncc(-c4ccc5c(c4)CC[C@@H](N4C6COCC4C6)CC5)cc23)cn1 [Example 170, N,N-Dimethyl-2-(5-{5-[(7S)-7-{3-oxa-6-azabicyclo[3.1.1]heptan-6-yl}-6,7,8,9-tetrahydro-5H-benzo[7]annulen-2-yl]-1H-pyrrolo[2,3-b]pyridin-3-yl}pyridin-2-yl)benzamide]
8 | 6.00 to 7.00 | 6.00 to 7.00 | O=C(c1cccnc1-c1ccc(-c2c[nH]c3ncc(-c4ccc5c(c4)CC[C@@H](N4C6COCC4C6)CC5)cc23)cc1)N1CCCC1 [Example 171, 6-[(7S)-2-(3-{4-[3-(Pyrrolidine-1-carbonyl)pyridin-2-yl]phenyl}-1H-pyrrolo[2,3-b]pyridin-5-yl)-6,7,8,9-tetrahydro-5H-benzo[7]annulen-7-yl]-3-oxa-6-azabicyclo[3.1.1]heptane]
9 | > 7.00 | > 7.00 | Cc1cccnc1-c1ccc(-c2c[nH]c3ncc(-c4ccc5c(c4)CC[C@@](C)(N4CCC[C@H]4C)CC5)cc23)cc1 [Example 172, 3-Methyl-2-(4-{5-[(7S)-7-methyl-7-[(2R)-2-methylpyrrolidin-1-yl]-6,7,8,9-tetrahydro-5H-benzo[7]annulen-2-yl]-1H-pyrrolo[2,3-b]pyridin-3-yl}phenyl)pyridine]
10 | > 7.00 | > 7.00 | Cc1cccnc1-c1ccc(-c2c[nH]c3ncc(-c4ccc5c(c4)CC[C@@H](N4CCCC4)CC5)cc23)cc1 [Example 173, 3-Methyl-2-(4-{5-[(7S)-7-(pyrrolidin-1-yl)-6,7,8,9-tetrahydro-5H-benzo[7]annulen-2-yl]-1H-pyrrolo[2,3-b]pyridin-3-yl}phenyl)pyridine]
11 | > 7.00 | > 7.00 | Cc1cncnc1-c1ccc(-c2n[nH]c3ncc(-c4ccc5c(c4)CC[C@@H](N4C6COCC4C6)CC5)cc23)cc1 [Example 174, 6-[(7S)-2-{3-[4-(5-Methylpyrimidin-4-yl)phenyl]-1H-pyrazolo[3,4-b]pyridin-5-yl}-6,7,8,9-tetrahydro-5H-benzo[7]annulen-7-yl]-3-oxa-6-azabicyclo[3.1.1]heptane]
12 | 6.00 to 7.00 | 6.00 to 7.00 | Cc1nccnc1-c1ccc(-c2n[nH]c3ncc(-c4ccc5c(c4)CC[C@@H](N4C6COCC4C6)CC5)cc23)cc1 [Example 175, 6-[(7S)-2-{3-[4-(3-Methylpyrazin-2-yl)phenyl]-1H-pyrazolo[3,4-b]pyridin-5-yl}-6,7,8,9-tetrahydro-5H-benzo[7]annulen-7-yl]-3-oxa-6-azabicyclo[3.1.1]heptane]
13 | > 7.00 | > 7.00 | Cc1ccnnc1-c1ccc(-c2n[nH]c3ncc(-c4ccc5c(c4)CC[C@@H](N4C6COCC4C6)CC5)cc23)cc1 [Example 176, 6-[(7S)-2-{3-[4-(4-Methylpyridazin-3-yl)phenyl]-1H-pyrazolo[3,4-b]pyridin-5-yl}-6,7,8,9-tetrahydro-5H-benzo[7]annulen-7-yl]-3-oxa-6-azabicyclo[3.1.1]heptane]
14 | 6.00 to 7.00 | 6.00 to 7.00 | O=C1CCCN1c1cccnc1-c1ccc(-c2n[nH]c3ncc(-c4ccc5c(c4)CC[C@@H](N4C6COCC4C6)CC5)cc23)cc1 [Example 177, 1-[2-(4-{5-[(7S)-7-{3-Oxa-6-azabicyclo[3.1.1]heptan-6-yl}-6,7,8,9-tetrahydro-5H-benzo[7]annulen-2-yl]-1H-pyrazolo[3,4-b]pyridin-3-yl}phenyl)pyridin-3-yl]pyrrolidin-2-one]
15 | 6.00 to 7.00 | 6.00 to 7.00 | c1cnc(-c2ccc(-c3c[nH]c4ncc(-c5ccc6c(c5)CC[C@@H](N5C7COCC5C7)CC6)cc34)cc2)c(C2CC2)c1 [Example 178, 6-[(7S)-2-{3-[4-(3-Cyclopropylpyridin-2-yl)phenyl]-1H-pyrrolo[2,3-b]pyridin-5-yl}-6,7,8,9-tetrahydro-5H-benzo[7]annulen-7-yl]-3-oxa-6-azabicyclo[3.1.1]heptane]
16 | 6.00 to 7.00 | 6.00 to 7.00 | c1cnc(-c2ccc(-c3n[nH]c4ncc(-c5ccc6c(c5)CC[C@@H](N5C7COCC5C7)CC6)cc34)cc2)c(C2CC2)c1 [Example 179, 6-[(7S)-2-{3-[4-(3-Cyclopropylpyridin-2-yl)phenyl]-1H-pyrazolo[3,4-b]pyridin-5-yl}-6,7,8,9-tetrahydro-5H-benzo[7]annulen-7-yl]-3-oxa-6-azabicyclo[3.1.1]heptane]

From US12195482B1 (Arcus Biosciences, Inc., priority 2022, dated 2025)
